The values that follow come from article PMC8070745, “FEN1 Blockade for Platinum Chemo-Sensitization and Synthetic Lethality in Epithelial Ovarian Cancers” (Cancers, 2021).

For one assay, the system named is A2780cis cells. The assay is described as follows: Clonogenic assay, A2780cis. The assay is classed as cell-based, human. The note with it: pre-treatment with importin β inhibitor, then cisplatin vs cisplatin only. Here is the method: Clonogenic assay: In the clonogenic assay (colony formation assays), 32 cells/cm2 were seeded in 6-well plates and left at 37°C in a 5% CO2 atmosphere. Cisplatin (5µM) and/or FEN1i (10µM) and/or Importazole (5 µM, Selleckem, S8446 ) were added at the indicated concentrations and the plates were left at 37 °C in a 5% CO 2 atmosphere for 14 days. Later, the plates were washed with PBS, fixed and stained with a crystal violet, acetic acid and methanol solution and colonies were counted. […]

In assay [1] the test system is FEN1 nuclear localization in A2780cis cells. The assay is described as follows: Confocal microscopy of FEN1 nuclear localization, A2780cis. The assay is classed as cell-based, human. The note with it: pre-treatment with importin β inhibitor (5 µM) followed by cisplatin. Here is the method: For PEO1 and PEO4 cells, the cells where keep in culture up to four weeks ([…]) until spheroids structures were formed.
To quantify cell viability, LIVE/DEAD Viability/Cytotoxicity Kit (L3224, Thermo Fisher Scientific) was used. Briefly, the spheroids were harvest by trypsinization, washed with PBS and centrifuge at 1000×g for 5 minutes. The light-protected cellular pellet in PBS was loaded with 0.1µM of Calcein-AM and 1 µM of Ethidium homodimer-1 for 20 minutes at room temperature. The samples were analysed on a Beckman-Coulter FC500 flow cytometer using a 495nm laser for excitation and a 515nm laser for emission data for Calcein AM and a 495nm laser for excitation and emission at 635nm for Ethidium Homodimer-1. In addition, Image J software was used to calculate spheroid diameter. Mean of three diagonal diameters was taken as diameter for each spheroid. At least 10 spheroids were measured. […]
Laboratories). Imaging was carried out using Leica SP2 confocal laser scanning microscope (CLSM) and analysed with ImageJ software (NIH, USA). For analysis a minimum of 100 cells per slide were counted.
On 3D structures, the spheroids were fixed with 4% paraformaldehyde for 30 minutes. […] Imaging was carried out using Leica SP2 confocal laser scanning microscope (CLSM) and analysed with ImageJ software (NIH, USA). […]

Assay [2] deals with BRCA deficient germ-line or platinum-sensitive sporadic epithelial ovarian cancers. Details: method as in PMID 22452356, PMID 27717299, PMID 28916367, PMID 27908594. Conditions: maintenance therapy in patients; cited from earlier work.

As for `CC(Nc1nc(N2CCCC2)nc2ccccc12)c1ccccc1` (centres unmarked) [Importanzole], the “effect on cisplatin sensitivity” value with A2780cis cells is on record as “re-sensitized these cells to cisplatin therapy”. Besides, the “nuclear localization of FEN1” value in assay [1] was “reduced nuclear localization of FEN1”.
Take `NC(=O)c1cccc2cn(-c3ccc([C@@H]4CCCNC4)cc3)nc12` [Niraparib]: the progression-free survival result in assay [2] is reported as “substantially improves progression-free survival”.
With `O=C(c1cc(Cc2n[nH]c(=O)c3ccccc23)ccc1F)N1CCN(C(=O)C2CC2)CC1` [Olaparib], in assay [2], the progression-free survival result was “substantially improves progression-free survival”.
Turning to `CNCc1ccc(-c2[nH]c3cc(F)cc4c3c2CCNC4=O)cc1` [Rucaparib], the progression-free survival entry in assay [2] was “substantially improves progression-free survival”.
